# Experimental data published in patent publication US20240228488A1 (TAKEDA PHARMACEUTICAL COMPANY LIMITED, priority 2021, published 2024).
# How the values were obtained:
# plasma kallikrein = target: T1, plasma kallikrein (Homo sapiens, UniProt P03952); assay: Neat human plasma assay, FXIIa contact pathway-activated, PFR-AMC substrate; assay type: biochemical; conditions: citrated human plasma 78% final, 10 nM human FXIIa, 100 μM PFR-AMC; read-out: Human Plasma Assay: IC90
# T1 construct: from tissue
# T1 sequence (P03952 391-638 limits assumed): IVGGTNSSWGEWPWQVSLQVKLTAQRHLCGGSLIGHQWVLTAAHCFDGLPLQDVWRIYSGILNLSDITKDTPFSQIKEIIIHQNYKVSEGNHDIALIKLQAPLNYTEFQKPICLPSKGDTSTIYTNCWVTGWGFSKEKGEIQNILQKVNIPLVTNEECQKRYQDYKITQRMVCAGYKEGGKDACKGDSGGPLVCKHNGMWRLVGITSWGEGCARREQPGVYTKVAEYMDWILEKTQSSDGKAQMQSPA
# T1 sequence (P03952 20-390 partner limits assumed): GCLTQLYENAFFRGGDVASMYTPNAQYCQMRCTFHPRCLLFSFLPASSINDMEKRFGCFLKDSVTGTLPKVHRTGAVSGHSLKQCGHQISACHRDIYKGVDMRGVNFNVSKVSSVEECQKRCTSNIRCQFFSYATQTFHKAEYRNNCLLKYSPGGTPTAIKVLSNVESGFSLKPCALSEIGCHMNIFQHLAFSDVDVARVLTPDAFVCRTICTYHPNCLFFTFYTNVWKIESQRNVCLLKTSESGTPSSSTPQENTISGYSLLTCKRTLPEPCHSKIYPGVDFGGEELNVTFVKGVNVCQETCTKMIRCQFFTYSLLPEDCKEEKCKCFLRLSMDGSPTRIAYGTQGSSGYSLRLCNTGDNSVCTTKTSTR
# How it was run: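 Compound inhibition of plasma kallikrein measured as PFR-AMC (100 μM) cleavage rate over 5 min at room temperature in 78% citrated human plasma activated with 10 nM FXIIa (Tris pH 7.5 buffer). IC50/IC90 from 4-parameter fit of rate versus inhibitor concentration.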
# [1] = target: human activated kallikrein enzyme (Homo sapiens, UniProt P03952); assay: Plasma kallikrein inhibition, fluorogenic PFR-AMC substrate, 500 pM activated kallikrein format; assay type: biochemical; conditions: 500 pM activated kallikrein, 300 uM PFR-AMC, 30 min preincubation, 10 min reaction; read-out: Primary Dose Response Assay: Average EC50
# Sequence of human activated kallikrein enzyme (P03952 391-638 limits assumed): as the sequence (P03952 391-638 limits assumed) above
# Sequence of human activated kallikrein enzyme (P03952 20-390 partner limits assumed): as the sequence (P03952 20-390 partner limits assumed) above
# How it was run: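 High-enzyme format of the fluorogenic peptide assay, with EC50 taken from AMC signal: 500 pM activated kallikrein, 300 uM Pro-Phe-Arg-AMC, 30 min compound preincubation and 10 min reaction, all at room temperature, pH 7.5.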
IC90 (plasma kallikrein) [µM],EC50 [1] [µM],Structure (SMILES)
< 0.4,< 0.001,"Cc1ccnc([C@H]2C[C@@H]2C(=O)Nc2nc(NCc3cn4cc(C5CC5)cc(N5CC(=O)N(C)C5=O)c4n3)nc(C3CC3)n2)n1 (racemic) [Example 523, rac-(1S*,2S*)-N-(4-cyclopropyl-6-(((6-cyclopropyl-8-(3-methyl-2,4-dioxoimidazolidin-1-yl)imidazo[1,2-a]pyridin-2-yl)methyl)amino)-1,3,5-triazin-2-yl)-2-(4-methylpyrimidin-2-yl)cyclopropane-1-carboxamide]"
10 to 48,0.001 to 0.01,"N#CCCc1cc(C2CC2)cn2cc(CNc3ccnc(NC(=O)[C@H]4C[C@@H]4c4cccc(Cl)c4)c3)nc12 (racemic) [Example 87, rac-(1S*,2S*)-2-(3-chlorophenyl)-N-(4-(((8-(2-cyanoethyl)-6-cyclopropylimidazo[1,2-a]pyridin-2-yl)methyl)amino)pyridin-2-yl)cyclopropane-1-carboxamide]"
1.5 to 10,< 0.001,"O=C(Nc1cc(NCc2cn3cc(C4CC4)ccc3n2)ccn1)[C@H]1C[C@@H]1c1cc(Cl)ccn1 (single isomer, unassigned) [Example I-270, rac-(1S*,2S*)-2-(4-chloropyridin-2-yl)-N-(4-(((6-cyclopropylimidazo[1,2-a]pyridin-2-yl)methyl)amino)pyridin-2-yl)cyclopropane-1-carboxamide]"
0.4 to 1.5,< 0.001,"Cc1ccnc([C@H]2C[C@@H]2C(=O)Nc2nc(C)nc(N(C)Cc3cn4cc(C5CC5)cc(N5CC(=O)NC5=O)c4n3)n2)n1 (racemic) [Example 524, rac-(1S*,2S*)-N-(4-(((6-cyclopropyl-8-(2,4-dioxoimidazolidin-1-yl)imidazo[1,2-a]pyridin-2-yl)methyl)(methyl)amino)-6-methyl-1,3,5-triazin-2-yl)-2-(4-methylpyrimidin-2-yl)cyclopropane-1-carboxamide]"
10 to 48,0.001 to 0.01,"CC(C)(O)c1cc(C2CC2)cn2cc(CNc3ccnc(NC(=O)[C@H]4C[C@@H]4c4cccc(Cl)c4)c3)nc12 [Example 122, (1S,2S)-2-(3-chlorophenyl)-N-(4-(((6-cyclopropyl-8-(2-hydroxypropan-2-yl)imidazo[1,2-a]pyridin-2-yl)methyl)amino)pyridin-2-yl)cyclopropane-1-carboxamide]"
0.4 to 1.5,< 0.001,"CN1CCC(Nc2cc(C3CC3)cn3cc(CNc4cc(NC(=O)[C@H]5C[C@@H]5c5cccc(Cl)c5)ncn4)nc23)CC1 [Example I-5, (1S,2S)-2-(3-chlorophenyl)-N-(6-(((6-cyclopropyl-8-((1-methylpiperidin-4-yl)amino)imidazo[1,2-a]pyridin-2-yl)methyl)amino)pyrimidin-4-yl)cyclopropane-1-carboxamide]"
10 to 48,< 0.001,"N#Cc1ccc(Cl)cc1[C@@H]1C[C@H]1C(=O)Nc1cc(NCc2cn3cc(C4CC4)cc(CO)c3n2)ccn1 (racemic) [Example 100, rac-(1S*,2S*)-2-(5-chloro-2-cyanophenyl)-N-(4-(((6-cyclopropyl-8-(hydroxymethyl)imidazo[1,2-a]pyridin-2-yl)methyl)amino)pyridin-2-yl)cyclopropane-1-carboxamide]"
0.4 to 1.5,< 0.001,"CN1C(=O)CN(c2cc(C3CC3)cn3cc(CN(C)c4cnnc(NC(=O)[C@H]5C[C@@H]5c5cccc(Cl)c5)c4)nc23)C1=O [Example I-641, (1S,2S)-2-(3-chlorophenyl)-N-(5-(((6-cyclopropyl-8-(3-methyl-2,4-dioxoimidazolidin-1-yl)imidazo[1,2-a]pyridin-2-yl)methyl)(methyl)amino)pyridazin-3-yl)cyclopropane-1-carboxamide]"
< 0.4,< 0.001,"CN(C)C1CC(=O)N(c2cc(C3CC3)cn3cc(CNc4cc(NC(=O)[C@H]5C[C@@H]5c5cccc(Cl)c5)ncn4)nc23)C1 (stereo partly drawn) [Example I-18, (1S,2S)-2-(3-chlorophenyl)-N-(6-(((6-cyclopropyl-8-(4-(dimethylamino)-2-oxopyrrolidin-1-yl)imidazo[1,2-a]pyridin-2-yl)methyl)amino)pyrimidin-4-yl)cyclopropane-1-carboxamide]"
< 0.4,< 0.001,"O=C(Nc1cc(NCc2cn3cc(C4CC4)cc(N4CCN(CCO)CC4)c3n2)ccn1)[C@H]1C[C@@H]1c1cccc(Cl)c1 [Example 603, (1S,2S)-2-(3-chlorophenyl)-N-(4-(((6-cyclopropyl-8-(4-(2-hydroxyethyl)piperazin-1-yl)imidazo[1,2-a]pyridin-2-yl)methyl)amino)pyridin-2-yl)cyclopropane-1-carboxamide]"
0.4 to 1.5,< 0.001,"Cc1ccnc([C@@H]2C[C@H]2C(=O)Nc2cc(OCc3cn4cc(C5CC5)cc(N5CC(=O)N(C)C5=O)c4n3)ncn2)n1 (racemic) [Example 28, rac-(1S*,2S*)—N-(6-((6-cyclopropyl-8-(3-methyl-2,4-dioxoimidazolidin-1-yl)imidazo[1,2-a]pyridin-2-yl)methoxy)pyrimidin-4-yl)-2-(4-methylpyrimidin-2-yl)cyclopropane-1-carboxamide]"
0.4 to 1.5,< 0.001,"Cc1ccnc([C@H]2C[C@@H]2C(=O)Nc2cc(N3C[C@@H](O)C[C@@H]3c3cn4cc(C5CC5)cc(N5CCOC5=O)c4n3)ncn2)n1 (relative stereo) [Example 471, rac-(1S*,2S*)-N-(6-((2R,4S)-2-(6-cyclopropyl-8-(2-oxooxazolidin-3-yl)imidazo[1,2-a]pyridin-2-yl)-4-hydroxypyrrolidin-1-yl)pyrimidin-4-yl)-2-(4-methylpyrimidin-2-yl)cyclopropane-1-carboxamide]"
< 0.4,< 0.001,"Cc1cc(OCc2cn3cc(C4CC4)cc(N4CC(=O)N(C)C4=O)c3n2)cc(NC(=O)[C@H]2C[C@@H]2c2nccc(C)n2)n1 [Example 34, (1S,2S)—N-(4-((6-cyclopropyl-8-(3-methyl-2,4-dioxoimidazolidin-1-yl)imidazo[1,2-a]pyridin-2-yl)methoxy)-6-methylpyridin-2-yl)-2-(4-methylpyrimidin-2-yl)cyclopropane-1-carboxamide]"
0.4 to 1.5,< 0.001,"O=C(Nc1cc(NCc2cn3cc(C4CC4)cc(N4CCCC4=O)c3n2)ncn1)[C@H]1C[C@@H]1c1cccc(Cl)c1 [Example 144, (1S,2S)-2-(3-chlorophenyl)-N-(6-(((6-cyclopropyl-8-(2-oxopyrrolidin-1-yl)imidazo[1,2-a]pyridin-2-yl)methyl)amino)pyrimidin-4-yl)cyclopropane-1-carboxamide]"
> 48,0.001 to 0.01,"Nc1ccc(Cl)cc1[C@H]1C[C@@H]1C(=O)Nc1cc(NCc2cn3cc(C4CC4)ccc3n2)ccn1 (racemic) [Example I-222, rac-(1S*,2S*)-2-(2-amino-5-chlorophenyl)-N-(4-(((6-cyclopropylimidazo[1,2-a]pyridin-2-yl)methyl)amino)pyridin-2-yl)cyclopropane-1-carboxamide]"
< 0.4,< 0.001,"Cc1ccnc([C@H]2C[C@@H]2C(=O)Nc2cc(N(C)Cc3cn4cc(C5CC5)cc(N5CC(=O)N(CCO)C5=O)c4n3)cc(C3CC3)n2)n1 [Example I-637, (1S,2S)—N-(6-cyclopropyl-4-(((6-cyclopropyl-8-(3-(2-hydroxyethyl)-2,4-dioxoimidazolidin-1-yl)imidazo[1,2-a]pyridin-2-yl)methyl)(methyl)amino)pyridin-2-yl)-2-(4-methylpyrimidin-2-yl)cyclopropane-1-carboxamide]"
0.4 to 1.5,0.001 to 0.01,"Cc1ccnc([C@H]2C[C@@H]2C(=O)Nc2cc(N(C)Cc3cn4cc(C5CC5)cc(N5CC(=O)NC5=O)c4n3)nc(C3CC3)n2)n1 [Example 408, (1S,2S)-N-(2-cyclopropyl-6-(((6-cyclopropyl-8-(2,4-dioxoimidazolidin-1-yl)imidazo[1,2-a]pyridin-2-yl)methyl)(methyl)amino)pyrimidin-4-yl)-2-(4-methylpyrimidin-2-yl)cyclopropane-1-carboxamide]"
0.4 to 1.5,< 0.001,"Cc1ccnc([C@H]2C[C@@H]2C(=O)Nc2cc(NCc3cn4cc(C5CC5)cc(N5CC(=O)NC5=O)c4n3)ncn2)n1 (racemic) [Example 392, rac-(1S*,2S*)-N-(6-(((6-cyclopropyl-8-(2,4-dioxoimidazolidin-1-yl)imidazo[1,2-a]pyridin-2-yl)methyl)amino)pyrimidin-4-yl)-2-(4-methylpyrimidin-2-yl)cyclopropane-1-carboxamide]"
0.4 to 1.5,< 0.001,"CN(C)C1CCN(c2cc(C3CC3)cn3cc(CNc4cc(NC(=O)[C@H]5C[C@@H]5c5cccc(Cl)c5)ncn4)nc23)C1=O (stereo partly drawn) [Example I-17, (1S,2S)-2-(3-chlorophenyl)-N-(6-(((6-cyclopropyl-8-(3-(dimethylamino)-2-oxopyrrolidin-1-yl)imidazo[1,2-a]pyridin-2-yl)methyl)amino)pyrimidin-4-yl)cyclopropane-1-carboxamide]"
< 0.4,< 0.001,"COCc1nc(NC(=O)[C@H]2C[C@@H]2c2nccc(C)n2)cc(N[C@H](C)c2cn3cc(C4CC4)cc(N4CC(=O)N(C)C4=O)c3n2)n1 [Example 355, (1S,2S)-N-(6-(((R)-1-(6-cyclopropyl-8-(3-methyl-2,4-dioxoimidazolidin-1-yl)imidazo[1,2-a]pyridin-2-yl)ethyl)amino)-2-(methoxymethyl)pyrimidin-4-yl)-2-(4-methylpyrimidin-2-yl)cyclopropane-1-carboxamide]"
